The target of the test is Short transient receptor potential channel 6 (Mus musculus) (UniProt Q61143). The test is described as follows: potency of TRPC6 cation channel blockers – HEK293 cells, membrane potential dye, IC50, SAR follow-up (AID 504572). The following applies: acetylcholine-evoked membrane potential dye, FDSS.

Consider six molecules from PubChem BioAssay AID504572 (Johns Hopkins Ion Channel Center, 2011).

The term IC50 denotes the concentration that inhibits the measured activity by half.

Structures are written as SMILES.

Short transient receptor potential channel 6 (Mus musculus), sequence (Q61143 whole entry, looked up): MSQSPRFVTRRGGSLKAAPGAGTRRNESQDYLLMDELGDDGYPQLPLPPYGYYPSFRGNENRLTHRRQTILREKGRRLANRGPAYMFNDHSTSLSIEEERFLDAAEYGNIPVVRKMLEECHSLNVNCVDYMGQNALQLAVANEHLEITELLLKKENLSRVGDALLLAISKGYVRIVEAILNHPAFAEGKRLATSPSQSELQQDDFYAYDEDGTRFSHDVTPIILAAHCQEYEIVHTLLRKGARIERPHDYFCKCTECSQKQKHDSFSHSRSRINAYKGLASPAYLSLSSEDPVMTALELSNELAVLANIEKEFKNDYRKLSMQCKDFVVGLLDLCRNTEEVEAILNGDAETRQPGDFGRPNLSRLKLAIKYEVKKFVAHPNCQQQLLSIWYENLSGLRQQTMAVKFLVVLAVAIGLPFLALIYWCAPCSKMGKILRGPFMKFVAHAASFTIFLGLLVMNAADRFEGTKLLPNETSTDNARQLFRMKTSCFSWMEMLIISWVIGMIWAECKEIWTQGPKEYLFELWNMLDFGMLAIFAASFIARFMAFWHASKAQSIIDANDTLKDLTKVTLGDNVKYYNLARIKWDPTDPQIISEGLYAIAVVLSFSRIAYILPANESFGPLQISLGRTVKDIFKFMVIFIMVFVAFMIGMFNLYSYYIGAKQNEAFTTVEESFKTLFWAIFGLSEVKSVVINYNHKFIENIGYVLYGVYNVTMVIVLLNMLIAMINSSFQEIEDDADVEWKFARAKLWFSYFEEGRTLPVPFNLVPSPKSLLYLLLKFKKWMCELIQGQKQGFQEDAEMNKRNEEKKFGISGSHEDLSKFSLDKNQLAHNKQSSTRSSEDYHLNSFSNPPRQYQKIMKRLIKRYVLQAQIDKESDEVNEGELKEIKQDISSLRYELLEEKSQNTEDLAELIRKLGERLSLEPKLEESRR

On to `CCOc1ccc(CNc2ccc3c(c2)ncn3C(C)(C)C)cc1`, for which the IC50 was 2.51 µM.
The value for `COc1ccccc1CNc1ccc2c(c1)ncn2C(C)(C)C` was 5.54 µM.
As to `CCOc1ccccc1CNc1ccc2c(c1)ncn2C(C)(C)C`, the IC50 was 2.16 µM.
To `CC(C)(C)n1cnc2cc(NCc3ccccc3Cl)ccc21` belongs 4.76 µM.
To `COc1ccc(OC)c(CNc2ccc3c(c2)ncn3C(C)(C)C)c1` belongs 2.7 µM; to `CC(C)(C)n1cnc2cc(NCc3ccc(Cl)cc3Cl)ccc21`, 6.42 µM.
